Measurements published in ChEMBL document CHEMBL1926634, “Structure-guided evolution of potent and selective CHK1 inhibitors through scaffold morphing” (J Med Chem, 2011).

target: T1, Serine/threonine-protein kinase Chk1 (Homo sapiens, UniProt O14757)
T1 sequence (O14757 whole entry): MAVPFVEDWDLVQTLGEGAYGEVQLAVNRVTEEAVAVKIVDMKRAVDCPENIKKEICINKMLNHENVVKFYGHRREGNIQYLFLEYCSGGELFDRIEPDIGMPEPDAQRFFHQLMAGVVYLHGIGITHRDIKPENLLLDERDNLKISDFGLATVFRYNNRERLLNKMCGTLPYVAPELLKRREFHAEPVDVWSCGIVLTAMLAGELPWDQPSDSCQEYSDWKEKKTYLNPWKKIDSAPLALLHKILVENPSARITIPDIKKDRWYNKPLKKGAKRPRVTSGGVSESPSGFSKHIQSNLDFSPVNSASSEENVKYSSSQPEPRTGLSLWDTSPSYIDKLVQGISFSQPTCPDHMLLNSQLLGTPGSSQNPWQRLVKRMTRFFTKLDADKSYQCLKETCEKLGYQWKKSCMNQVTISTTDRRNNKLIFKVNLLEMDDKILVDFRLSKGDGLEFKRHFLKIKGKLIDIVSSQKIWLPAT
Description: Competitive inhibition of human CHK1 using ATP as substrate by DELFIA

| IC50 [µM] | Compound |
| --- | --- |
| 3.2 | N#Cc1cccc(-c2c[nH]c3ncnc(N4CCOC(CN)C4)c23)c1 (configuration not stated) |
| 1.7 | NCCCNc1ncnc2[nH]c3cnccc3c12 |
| 0.67 | NC1CCN(c2ncnc3[nH]c4cnccc4c23)CC1 |
| 0.29 | NCC1CCN(c2ncnc3[nH]c4cnccc4c23)CC1 |
| 122 | c1cncc(Nc2cc(NCC3CCNCC3)ncn2)c1 |
| 22 | NCC1CCN(c2cc(Nc3cnccn3)ncn2)CC1 |
| 20 | N#Cc1cnc(Nc2cc(NCC3CCOCC3)ncn2)cn1 |
